{
  "source": "paper PMC10739574",
  "about": "(Bioconjugate Chemistry, 2023)",
  "molecular_target": "Recombinant FKBP12 (Homo sapiens, UniProt P62942)",
  "sequence (P62942 whole entry)": "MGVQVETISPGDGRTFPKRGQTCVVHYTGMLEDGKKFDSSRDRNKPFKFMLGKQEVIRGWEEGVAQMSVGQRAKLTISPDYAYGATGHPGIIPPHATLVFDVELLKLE",
  "test": "Pure protein target engagement assay",
  "assay_type": "binding",
  "data": [
    {"compound": "C#CCCC1(CC[C@H](NC(=O)NCCCCCCNC(=O)NCCNC(=O)COc2cccc([C@@H](CCc3ccc(OC)c(OC)c3)OC(=O)[C@H]3CCCN3C(=O)C(=O)C(C)(C)CC)c2)C(N)=O)N=N1.O=C(O)C(F)(F)F", "note": "[Compound 6]", "values": [
      {"measurement": "Fluorescent intensity of the bands", "setting": "crude probes 10 µM, comparison", "result": "brighter than crude 3"}
    ]},
    {"compound": "C#CCCC1(CC[C@H](NC(=O)NCCCCCCNC(=O)NCCN)C(N)=O)N=N1", "note": "[Compound 7, (S)-16-amino-2-(2-(3-(but-3-yn-1-yl)-3H-diazirin-3-yl)ethyl)-4,13-dioxo-3,5,12,14-tetraazahexadecanamide]", "values": [
      {"measurement": "Nonspecific labeling of FKBP12", "setting": "crude linker, 10 and 40 µM, negative control", "result": "not seen"}
    ]},
    {"compound": "CO[C@H]1C[C@@H]2CC[C@@H](C)[C@@](O)(O2)C(=O)C(=O)N2CCCC[C@H]2C(=O)O[C@H]([C@H](C)C[C@@H]2CC[C@@H](O)[C@H](OC)C2)CC(=O)[C@H](C)/C=C(\\C)[C@@H](O)[C@@H](OC)C(=O)[C@H](C)C[C@H](C)/C=C/C=C/C=C/1C", "note": "[rapamycin, reference compound]", "values": [
      {"measurement": "Competition of PAL probe interaction with FKBP12", "setting": "rapamycin 10 µM pretreatment, purified and crude probes 10 µM", "result": "prevented interaction with the PAL probes"}
    ]},
    {"compound": "C#CCCC1(CC[C@H](NC(=O)NCCCCCCNC(=O)NCCNC(=O)COc2cccc([C@@H](CCc3ccc(OC)c(OC)c3)OC(=O)[C@@H]3CCCCN3C(=O)C(=O)C(C)(C)CC)c2)C(N)=O)N=N1.O=C(O)C(F)(F)F", "note": "[Compound 3]", "values": [
      {"measurement": "Labeling of FKBP12 in dilution series", "setting": "8-point, 5-fold dilution series, UV irradiated", "result": "Dose-dependent labeling"}
    ]}
  ]
}
